Assay results published in US5096817A, “Process for producing antibiotics BU-3608 D and BU-3608 E” (Bristol-Myers Company, priority 1990, dated 1992).

Experiments:
[1] = acute toxicity in mice after single intravenous administration; conditions: mouse, in vivo
Method: The acute toxicity of BU-3608 D was determined in mice after single intraveneous administration.

Candida albicans A9540 = assay: in vivo antifungal activity against C. albicans A9540 intravenous infection in mice; set-up: species or system male ICR mice; conditions: for ED50: Candida albicans, A9540, 480 h, intravenous, from survival rates on the 20th day, read-out: PD50 (dose that protects 50% of the animals from infection); for Number of survivors/tested: 20th day
Method: In vivo activity of BU-3608 E was tested against Candida albicans A9540 infection in mice. Test organisms were cultured for 18 hours at 28° C. in YGP medium (yeast extract, glucose, peptone, K2 HPO4, MgSO4) and then suspended in saline. Male ICR mice weighing 20 to 24 g were infected intravenously with about 10 times the median lethal dose of the test fungus. The antibiotic at various dose levels was administered to groups of 5 mice each intravenously just after the fungal infection. The dose that protects 50% of the animals from infection (PD50, mg/kg) was calculated from survival rates recorded on the 20th day after the fungal challenge. All control animals died within 7 to 15 days after infection. The PD50 for BU-3608 D against the same organism and using the same test protocol as described above is 9 mg/kg/inj.

SMILES	LD50 [1] [mg/kg]	ED50 (Candida albicans A9540) [mg/kg]	Number of survivors/tested (Candida albicans A9540; 1.6 mg/kg/inj. intravenously just after infection)	Number of survivors/tested (Candida albicans A9540; 3.1 mg/kg/inj. intravenously just after infection)	Number of survivors/tested (Candida albicans A9540; 6.3 mg/kg/inj. intravenously just after infection)	Number of survivors/tested (Candida albicans A9540; 12.5 mg/kg/inj. intravenously just after infection)	Number of survivors/tested (Candida albicans A9540; 25 mg/kg/inj. intravenously just after infection)	Number of survivors/tested (Candida albicans A9540; 50 mg/kg/inj. intravenously just after infection)
CN[C@@H]1[C@H](O[C@@H]2OC[C@@H](O)[C@H](O)[C@H]2O)[C@@H](O)[C@H](O[C@H]2c3cc(C)c(C(=O)NCC(=O)O)c(O)c3-c3c(cc4c(c3O)C(=O)c3cc(OC)cc(O)c3C4=O)[C@@H]2O)O[C@@H]1C [BU-3608 D]	210	9	–	–	–	–	–	–
COc1cc(O)c2c(c1)C(=O)c1c(cc3c(c1O)-c1c(cc(C)c(C(=O)NCC(=O)O)c1O)[C@H](O[C@@H]1O[C@H](C)[C@H](N)[C@H](O[C@@H]4OC[C@@H](O)[C@H](O)[C@H]4O)[C@H]1O)[C@H]3O)C2=O [BU-3608 E]	–	8.9	0/5	0/5	1/5	4/5	5/5	5/5
